Data: patent US20240197691A1, “TACROLIMUS COMPOSITIONS AND METHODS OF USE” (CN2 THERAPEUTICS, INC., priority 2022, published 2024)
“And” between values parts separate entries of the source, which are not always exact repeats. Identical values can stand only once.

What was measured:
[1] = Surface tension (pendant drop); format: physicochemical; conditions: Theta Lite Optical Tensiometer, 5 μL
Protocol: The Theta Lite Optical Tensiometer, Pendant drop Method, 5 μL sample size was used to measure the surface tension of the tacrolimus compositions.

[2] = Contact angle on parafilm; format: physicochemical; conditions: 20 μL on parafilm, ambient temperature
Protocol: The Theta Lite Optical Tensiometer, Dynamic Contact Angle Measurement, 20 μL sample size was used to measure the contact angle of the tacrolimus compositions of parafilm of 73.50 and 73.20. The tacrolimus composition has better wettability on the hydrophobic surface of parafilm when compared to water (97.90 and 99.90).

[3] = Gamma irradiation of Tacrolimus; format: physicochemical
Text: In certain embodiments, the composition can be irradiated before administration to a subject. For example, at least one component of the composition, such as, for example, tacrolimus, can undergo gamma irradiation before the final composition is created or the final composition can undergo gamma irradiation. In certain embodiments, the composition can be irradiated at a dose ranging from about 1 kilo-Gray (kGy) to about 100 kGy, preferably about 10 kGy to about 75 kGy, most preferably about 15 kGy to about 40 kGy.
The composition can be irradiated at a dose ranging from about 1 kilo-Gray (kGy) to about 100 kGy, preferably about 10 kGy to about 75 kGy, most preferably about 15 kGy to about 40 kGy (Table 36).

[4] = Forced degradation (thermal, acidic, basic, oxidative, UV); format: physicochemical
Protocol: Forced degradation of the drug product by thermal, acidic, basic, oxidative and UV stress conditions was performed. Forced degradation for the thermal, acidic and oxidative conditions were performed at 40° C., as it was anticipated that the drug would be stable under these conditions, based on its structure. UV and basic conditions were performed at ambient conditions. The drug product is most susceptible to basic stress conditions, and to a lesser extent is susceptible to UV and oxidative conditions. A summary of all the degradation peaks as a function of the stress condition can be found in Table 28.

[5] = reported; cited from earlier work
[6] = pH 5

Water
Surface Tension [1]: 72 mN/m
Contact angle [2]: 97.9 ° and 99.9 °

C=CC[C@@H]1/C=C(\C)C[C@H](C)C[C@H](OC)[C@H]2O[C@@](O)(C(=O)C(=O)N3CCCC[C@H]3C(=O)O[C@H](/C(C)=C/[C@@H]3CC[C@@H](O)[C@H](OC)C3)[C@H](C)[C@@H](O)CC1=O)[C@H](C)C[C@@H]2OC.O [Tacrolimus]
% impurities ([3]; 15 kGy solid): 0.82%
Total [Tac] in sample measured ([3]; 15 kGy solid): 0.96 mg/g
% impurities ([3]; 25 kGy solid): 0.88%
Total [Tac] in sample measured ([3]; 25 kGy solid): 0.92 mg/g
% impurities ([3]; 40 kGy solid): 0.91%
Total [Tac] in sample measured ([3]; 40 kGy solid): 0.91 mg/g
% impurities ([3]; Control solid): 0.56%
Total [Tac] in sample measured ([3]; Control solid): 0.99 mg/g
Degradant at RRT 0.52, Area % ([4]; Acid, 72h (40° C.)): 0.52 (0.47%)
Degradant at RRT 1.32, Area % ([4]; Acid, 72h (40° C.)): 1.32 (0.09%)
Degradant at RRT 1.36, Area % ([4]; Acid, 72h (40° C.)): 1.36 (0.07%)
Degradant at RRT 0.39, Area % ([4]; Base, 5 min (ambient)): 0.39 (1.52%)
Degradant at RRT 0.52, Area % ([4]; Base, 5 min (ambient)): 0.52 (27.62%)
Degradant at RRT 0.79, Area % ([4]; Base, 5 min (ambient)): 0.79 (0.97%)
Degradant at RRT 1.28, Area % ([4]; Base, 5 min (ambient)): 1.28 (0.20%)
Degradant at RRT 1.32, Area % ([4]; Base, 5 min (ambient)): 1.32 (3.02%)
Degradant at RRT 1.35, Area % ([4]; Base, 5 min (ambient)): 1.35 (2.37%)
Degradant at RRT 0.43, Area % ([4]; Peroxide, 48 h (40° C.)): 0.43 (2.03%)
Degradant at RRT 1.18, Area % ([4]; Peroxide, 48 h (40° C.)): 1.18 (0.17%)
Degradant at RRT 1.20, Area % ([4]; Peroxide, 48 h (40° C.)): 1.20 (0.05%)
Degradant at RRT 1.25, Area % ([4]; Peroxide, 48 h (40° C.)): 1.25 (0.35%)
Degradant at RRT 1.27, Area % ([4]; Peroxide, 48 h (40° C.)): 1.27 (0.16%)
Degradant at RRT 1.29, Area % ([4]; Peroxide, 48 h (40° C.)): 1.29 (0.10%)
Degradant at RRT 1.33, Area % ([4]; Peroxide, 48 h (40° C.)): 1.33 (0.06%)
Degradant at RRT 1.44, Area % ([4]; Peroxide, 48 h (40° C.)): 1.44 (0.08%)
Degradant at RRT 0.43, Area % ([4]; Thermal, 72 h (40° C.)): 0.43 (0.96%)
Degradant at RRT 0.38, Area % ([4]; UV, 72 h (ambient)): 0.38 (0.36%)
Degradant at RRT 0.45, Area % ([4]; UV, 72 h (ambient)): 0.45 (0.88%)
Degradant at RRT 0.53, Area % ([4]; UV, 72 h (ambient)): 0.53 (3.07%)
Degradant at RRT 0.58, Area % ([4]; UV, 72 h (ambient)): 0.58 (0.40%)
Degradant at RRT 1.03, Area % ([4]; UV, 72 h (ambient)): 1.03 (1.30%)
Degradant at RRT 1.10, Area % ([4]; UV, 72 h (ambient)): 1.10 (0.94%)
Degradant at RRT 1.13, Area % ([4]; UV, 72 h (ambient)): 1.13 (2.90%)
Degradant at RRT 1.17, Area % ([4]; UV, 72 h (ambient)): 1.17 (5.21%)
Degradant at RRT 1.21, Area % ([4]; UV, 72 h (ambient)): 1.21 (13.81%)
log P [5]: 3.3
Solubility of Tacrolimus in the supernatant [6]: ≤ 3.2 µg/g
